Patent US10294202B2, “Pyrrolidinones as herbicides” (FMC Corporation, priority 2013, dated 2019)

Tests used:
field poppy = test: Test D pre-/postemergence herbicide test; type: in vivo, Papaver rhoeas; details: for Plant response rating: Field Poppy, scale 0 to 100; for Plant response rating, Field Poppy: scale 0 to 100 (0 no effect, 100 complete control)
Text: (§1) Seeds of plant species selected from bluegrass (annual bluegrass, Poa annua), blackgrass (Alopecurus myosuroides), canarygrass (littleseed canarygrass, Phalaris minor), chickweed (common chickweed, Stellaria media), galium (catchweed bedstraw, Galium aparine), bromegrass, downy (downy bromegrass, Bromus tectorum), field poppy (Papaver rhoeas), field violet (Viola arvensis), foxtail, green (green foxtail, Setaria viridis), deadnettle (henbit deadnettle, Lamium amplexicaule), ryegrass, Italian (Italian ryegrass, Lolium multiflorum), kochia (Kochia scoparia), lambsquarters (Chenopodium album), oilseed rape (Brassica napus), pigweed (Amaranthus retroflexus), chamomile (scentless chamomile, Matricaria inodora), Russian thistle (Salsola kali), speedwell (bird's-eye speedwell, Veronica persica), barley, spring (spring barley, Hordeum vulgare), wheat, spring (spring wheat, Triticum aestivum), buckwheat, wild (wild buckwheat, Polygonum convolvulus), mustard, wild (wild mustard, Sinapis arvensis), oat, wild (wild oat, Avena fatua), radish, wild (wild radish, Raphanus raphanistrum), […]), barley, winter (winter barley, Hordeum vulgare), and wheat, winter (winter wheat, Triticum aestivum) were planted into a silt loam soil and treated preemergence with test chemicals formulated in a non-phytotoxic solvent mixture which included a surfactant. At the same time, these species were planted in pots containing Redi-Earth® planting medium (Scotts Company, 14111 Scottslawn Road, Marysville, Ohio 43041) comprising spaghnum peat moss, vermiculite, wetting agent and starter nutrients and treated with postemergence applications of the test chemicals formulated in the same manner. Plants ranged in height from 2 to 18 cm (1- to 4-leaf stage). Treated plants and controls were maintained in a controlled growth environment for 7 to 21 days after which time all species were compared to controls and visually evaluated. Plant response ratings, summarized in Table D, are based on a scale of 0 to 100 where 0 is no effect and 100 is complete control. A dash (-) response means no test result.

buckwheat, wild = test: Test D pre-/postemergence herbicide test; type: in vivo, Polygonum convolvulus; details: for Plant response rating: Buckwheat, Wild, scale 0 to 100; for Plant response rating, Buckwheat, Wild: scale 0 to 100 (0 no effect, 100 complete control)
Text: as §1

bromegrass, downy = test: Test C pre-/postemergence herbicide test; type: in vivo, Bromus tectorum
Text: Seeds of plant species selected from blackgrass (Alopecurus myosuroides), ryegrass, Italian (Italian ryegrass, Lolium multiflorum), wheat (winter wheat, Triticum aestivum), galium (catchweed bedstraw, Galium aparine), corn (Zea mays), crabgrass, large (large crabgrass, Digitaria sanguinalis), foxtail, giant (giant foxtail, Setaria faberii), johnsongrass (Sorghum halepense), lambsquarters (Chenopodium album), morningglory (Ipomoea coccinea), nutsedge, yellow (yellow nutsedge, Cyperus esculentus), pigweed (Amaranthus retroflexus), ragweed (common ragweed, Ambrosia elatior), soybean (Glycine max), barnyardgrass (Echinochloa crus-galli), oilseed rape (Brassica napus), waterhemp (common waterhemp, Amaranthus rudis), kochia (Kochia scoparia), oat, wild (wild oat, Avena fatua), surinam grass (Brachiaria decumbens), foxtail, green (green foxtail, Setaria viridis), goosegrass (Eleusine indica), bromegrass, downy (downy bromegrass, Bromus tectorum), nightshade (eastern black nightshade, Solanum ptycanthum), cocklebur (common cocklebur, Xanthium strumarium), cupgrass, woolly (woolly cupgrass, Eriochloa villosa), bermudagrass (Cynodon dactylon), sunflower, (common oilseed sunflower, Helianthus annuus), Russian thistle (Salsola kali) and velvetleaf (Abutilon theophrasti) were planted into a blend of loam soil and sand and treated preemergence with test chemicals formulated in a non-phytotoxic solvent mixture which included a surfactant. At the same time, plants selected from these crop and weed species and also barley (winter barley, Hordeum vulgare), […]), chickweed (common chickweed, Stellaria media), deadnettle (henbit deadnettle, Lamium amplexicaule), and canarygrass (littleseed canarygrass, Phalaris minor) were planted in pots containing Redi-Earth® planting medium (Scotts Company, 14111 Scottslawn Road, Marysville, Ohio 43041) comprising spaghnum peat moss, vermiculite, wetting agent and starter nutrients and treated with postemergence applications of test chemicals formulated in the same manner. Plants ranged in height from 2 to 18 cm (1- to 4-leaf stage) for postemergence treatments. Treated plants and controls were maintained in a greenhouse for 13 to 15 days, after which time all species were compared to controls and visually evaluated. Plant response ratings, summarized in Table C, are based on a scale of 0 to 100 where 0 is no effect and 100 is complete control. A dash (-) response means no test result.

[1] = Preemergence, 62 g ai/ha, scale 0 to 100
[2] = Preemergence, 125 g ai/ha, scale 0 to 100 (0 no effect, 100 complete control)
[3] = Preemergence, 31 g ai/ha, scale 0 to 100 (0 no effect, 100 complete control)
[4] = Preemergence, 250 g ai/ha, scale 0 to 100 (0 no effect, 100 complete control)
[5] = Postemergence, 31 g ai/ha, scale 0 (no effect) to 100 (complete control)
[6] = Postemergence, 62 g ai/ha, scale 0 to 100 (0 no effect, 100 complete control)
[7] = Postemergence, 125 g ai/ha, scale 0 to 100 (0 no effect, 100 complete control)
[8] = Postemergence, 250 g ai/ha, scale 0 to 100 (0 no effect, 100 complete control)

Compound | Plant response rating (field poppy; Postemergence, 16 g ai/ha) | Plant response rating (field poppy; Postemergence, 31 g ai/ha) | Plant response rating (field poppy; Postemergence, 62 g ai/ha) | Plant response rating (field poppy; Postemergence, 125 g ai/ha) | Plant response rating (field poppy; Postemergence, 250 g ai/ha) | Plant response rating, Field Poppy (field poppy; Preemergence, 62 g ai/ha) | Plant response rating, Field Poppy (field poppy; Preemergence, 31 g ai/ha) | Plant response rating (field poppy; Preemergence, 250 g ai/ha) | Plant response rating (buckwheat, wild; Postemergence, 31 g ai/ha) | Plant response rating (buckwheat, wild; Postemergence, 62 g ai/ha) | Plant response rating (buckwheat, wild; Postemergence, 125 g ai/ha) | Plant response rating, Buckwheat, Wild (buckwheat, wild; Preemergence, 62 g ai/ha) | Plant response rating, Buckwheat, Wild (buckwheat, wild; Preemergence, 31 g ai/ha) | Plant response rating (buckwheat, wild; Preemergence, 250 g ai/ha) | Plant response rating, Bromegrass, Downy (bromegrass, downy; [1]) | Plant response rating, Bromegrass, Downy (bromegrass, downy; [2]) | Bromegrass, Downy plant response rating (bromegrass, downy; [3]) | Plant response rating, Bromegrass, Downy (bromegrass, downy; [5]) | Plant response rating, Bromegrass, Downy (bromegrass, downy; [6]) | Plant response rating, Bromegrass, Downy (bromegrass, downy; [7]) | also measured
O=C1NCC(c2ccc(F)c(F)c2)C1C(=O)Nc1ccccc1C(F)(F)F (racemic) [Compound 6] | 0 | 0 | 20 | 20 | 30 | 0 | 0 | 100 | 0 | 0 | 0 | 0 | 0 | 0 |  |  |  |  |  |  | Plant response rating (field poppy; Preemergence, 125 g ai/ha): 0; Plant response rating (buckwheat, wild; Postemergence, 16 g ai/ha): 0; Plant response rating (buckwheat, wild; Postemergence, 250 g ai/ha): 10; Plant response rating, Buckwheat, Wild (buckwheat, wild; Preemergence, 16 g ai/ha): 0; Plant response rating (buckwheat, wild; Preemergence, 125 g ai/ha): 0
O=C1NCC(c2ccc(F)c(C(F)(F)F)c2)C1C(=O)Nc1cccc(F)c1F (racemic) [Compound 77] |  |  |  |  |  | 90 | 75 | 100 |  |  |  | 75 | 0 | 55 |  |  |  |  |  |  | Plant response rating (field poppy; Preemergence, 125 g ai/ha): 95; Plant response rating (buckwheat, wild; Preemergence, 125 g ai/ha): 55
O=C1NCCC1C(=O)N(c1ccc(F)c(F)c1)c1ccccc1F (stereo not drawn) [Compound 5, N-(3,4-difluorophenyl)-N-(2-fluorophenyl)-2-oxo-3-pyrrolidinecarboxamide] |  |  |  |  |  |  |  |  |  |  |  |  |  |  | 0 | 0 | 0 |  |  |  | Plant response rating, Bromegrass, Downy (bromegrass, downy; [4]): 0
O=C1NCC(c2cc(F)c(F)c(F)c2)C1C(=O)Nc1cccc(F)c1F (stereo not drawn) [Compound 48] |  |  |  |  |  |  |  |  |  |  |  |  |  |  | 0 | 0 | 0 | 0 | 0 | 0 | Plant response rating, Bromegrass, Downy (bromegrass, downy; Postemergence, 16 g ai/ha, scale 0 to 100 (0 no effect, 100 complete control)): 0; Plant response rating, Bromegrass, Downy (bromegrass, downy; Preemergence, 16 g ai/ha, scale 0 to 100): 0
O=C1NCC(c2cc(F)c(F)cc2F)C1C(=O)Nc1cccc(F)c1F (stereo not drawn) [Compound 50] | 0 | 0 | 0 | 0 |  | 0 | 50 |  | 10 | 10 | 10 | 0 | 0 |  |  |  |  | 0 | 0 | 0 | Plant response rating, Bromegrass, Downy (bromegrass, downy; [8]): 0; Plant response rating, Field Poppy (field poppy; Preemergence, 16 g ai/ha): 0; Plant response rating (field poppy; Preemergence, 125 g ai/ha): 65; Plant response rating (buckwheat, wild; Postemergence, 16 g ai/ha): 10; Plant response rating, Buckwheat, Wild (buckwheat, wild; Preemergence, 16 g ai/ha): 0
O=C1NCC(c2ccc(Cl)c(F)c2)C1C(=O)Nc1cccc(F)c1F (stereo not drawn) [Compound 52] | 0 | 0 | 0 | 0 | 0 | 50 | 50 | 80 | 0 | 0 | 0 | 0 | 0 | 10 | 0 | 0 | 0 | 0 | 0 | 0 | Plant response rating, Bromegrass, Downy (bromegrass, downy; [8]): 10; Plant response rating, Bromegrass, Downy (bromegrass, downy; [4]): 0; Plant response rating, Field Poppy (field poppy; Preemergence, 16 g ai/ha): 30; Plant response rating (buckwheat, wild; Postemergence, 16 g ai/ha): 0; Plant response rating (buckwheat, wild; Postemergence, 250 g ai/ha): 0; Plant response rating, Buckwheat, Wild (buckwheat, wild; Preemergence, 16 g ai/ha): 0; Plant response rating (buckwheat, wild; Preemergence, 125 g ai/ha): 10
O=C1NCC(c2ccc(F)c(Cl)c2)C1C(=O)Nc1ccccc1F (stereo not drawn) [Compound 60] |  |  |  |  |  |  |  |  |  |  |  |  |  |  | 0 | 0 | 0 | 0 | 0 | 5 | 
O=C1NCC(c2cccc(OC(F)(F)F)c2)C1C(=O)Nc1ccccc1F (stereo not drawn) [Compound 69] |  |  |  |  |  |  |  |  |  |  |  |  |  |  | 0 | 0 |  |  |  |  | Bromegrass, Downy plant response rating (bromegrass, downy; Preemergence, 31 g ai/ha, scale 0 to 100, 0 is no effect and 100 is complete control): 0; Plant response rating (scale of 0 to 100), Bromegrass, Downy (bromegrass, downy; Preemergence, 250 g ai/ha): 0
O=C1NCC(c2ccc(C(F)(F)F)cc2)C1C(=O)Nc1ccccc1F (stereo not drawn) [Compound 231] |  | 0 | 20 | 0 | 50 | 80 | 80 | 95 | 0 | 0 | 0 | 0 | 0 | 10 |  |  |  |  |  |  | Plant response rating, Field Poppy (field poppy; Preemergence, 125 g ai/ha): 100; Plant response rating (buckwheat, wild; Postemergence, 250 g ai/ha): 0; Plant response rating, Buckwheat, Wild (buckwheat, wild; Preemergence, 125 g ai/ha): 0
